Assay results taken from the supplement of paper PMC12463676, “Small-molecule dissolution of stress granules by redox modulation benefits ALS models” (Nature Chemical Biology, 2025).

What was measured:
lipoamide = compound: NC(=O)CCCCC1CCSS1 [lipoamide]; assay: thermal stability z-score vs DMSO; higher = more thermally stabilized by treatment; settings: HeLa, lipoamide concentration 100 µM
Method: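 Cellular thermal proteome profiling in HeLa cells. Cells were treated with 100 µM lipoamide for 1 h, with or without 1 mM arsenate for a further 1 h, then heated to ten temperatures (37-66.3 °C), and soluble protein was quantified by TMT mass spectrometry relative to 0.1% DMSO controls. The thermal stability score (sum of log2 fold changes minus the abundance score) was transformed to a z-score; mean of n = 3 experiments.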

potassium arsenate = compound: O=[As]([O-])(O)O.[K+] [potassium arsenate]; assay: as above; settings: HeLa; arsenate concentration 1 mM
Method: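 Cellular thermal proteome profiling in HeLa cells treated with 1 mM arsenate for 1 h (DMSO pretreatment), heated to ten temperatures (37-66.3 °C). Soluble protein was quantified by TMT mass spectrometry relative to DMSO controls; the thermal stability score was transformed to a z-score; mean of n = 3 experiments.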

[1] = arsenate co-treatment: 1 mM arsenate 1 h
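Also: each temperature applied for 3 min, abundance score taken as mean log2 fold change at the two lowest temperatures, z-score obtained by mean subtraction and division by SD.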

Chain of UniProt P63151 (P63151 whole entry): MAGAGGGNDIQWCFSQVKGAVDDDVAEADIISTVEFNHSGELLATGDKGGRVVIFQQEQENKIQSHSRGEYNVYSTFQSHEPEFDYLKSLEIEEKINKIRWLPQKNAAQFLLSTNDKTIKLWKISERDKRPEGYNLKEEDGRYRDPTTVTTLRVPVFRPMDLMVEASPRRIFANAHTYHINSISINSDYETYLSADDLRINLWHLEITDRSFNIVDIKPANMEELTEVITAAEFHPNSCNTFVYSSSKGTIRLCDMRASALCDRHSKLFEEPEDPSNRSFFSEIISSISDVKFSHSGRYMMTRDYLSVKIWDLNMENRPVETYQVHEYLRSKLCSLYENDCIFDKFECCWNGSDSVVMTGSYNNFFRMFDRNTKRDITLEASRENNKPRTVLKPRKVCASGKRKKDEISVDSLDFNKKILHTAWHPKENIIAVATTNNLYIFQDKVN
Chain of UniProt Q9NY27 (Q9NY27 whole entry): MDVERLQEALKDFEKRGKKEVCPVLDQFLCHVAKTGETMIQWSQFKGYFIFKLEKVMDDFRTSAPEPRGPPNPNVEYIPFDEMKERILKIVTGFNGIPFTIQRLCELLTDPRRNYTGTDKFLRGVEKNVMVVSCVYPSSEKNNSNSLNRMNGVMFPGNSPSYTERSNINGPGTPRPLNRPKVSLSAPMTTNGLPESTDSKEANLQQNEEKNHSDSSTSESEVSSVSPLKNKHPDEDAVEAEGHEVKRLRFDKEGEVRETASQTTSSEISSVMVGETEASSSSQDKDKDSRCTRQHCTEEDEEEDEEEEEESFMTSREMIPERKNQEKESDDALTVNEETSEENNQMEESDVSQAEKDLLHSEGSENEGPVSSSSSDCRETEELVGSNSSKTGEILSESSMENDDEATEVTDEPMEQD
Chain of UniProt O14974 (O14974 whole entry): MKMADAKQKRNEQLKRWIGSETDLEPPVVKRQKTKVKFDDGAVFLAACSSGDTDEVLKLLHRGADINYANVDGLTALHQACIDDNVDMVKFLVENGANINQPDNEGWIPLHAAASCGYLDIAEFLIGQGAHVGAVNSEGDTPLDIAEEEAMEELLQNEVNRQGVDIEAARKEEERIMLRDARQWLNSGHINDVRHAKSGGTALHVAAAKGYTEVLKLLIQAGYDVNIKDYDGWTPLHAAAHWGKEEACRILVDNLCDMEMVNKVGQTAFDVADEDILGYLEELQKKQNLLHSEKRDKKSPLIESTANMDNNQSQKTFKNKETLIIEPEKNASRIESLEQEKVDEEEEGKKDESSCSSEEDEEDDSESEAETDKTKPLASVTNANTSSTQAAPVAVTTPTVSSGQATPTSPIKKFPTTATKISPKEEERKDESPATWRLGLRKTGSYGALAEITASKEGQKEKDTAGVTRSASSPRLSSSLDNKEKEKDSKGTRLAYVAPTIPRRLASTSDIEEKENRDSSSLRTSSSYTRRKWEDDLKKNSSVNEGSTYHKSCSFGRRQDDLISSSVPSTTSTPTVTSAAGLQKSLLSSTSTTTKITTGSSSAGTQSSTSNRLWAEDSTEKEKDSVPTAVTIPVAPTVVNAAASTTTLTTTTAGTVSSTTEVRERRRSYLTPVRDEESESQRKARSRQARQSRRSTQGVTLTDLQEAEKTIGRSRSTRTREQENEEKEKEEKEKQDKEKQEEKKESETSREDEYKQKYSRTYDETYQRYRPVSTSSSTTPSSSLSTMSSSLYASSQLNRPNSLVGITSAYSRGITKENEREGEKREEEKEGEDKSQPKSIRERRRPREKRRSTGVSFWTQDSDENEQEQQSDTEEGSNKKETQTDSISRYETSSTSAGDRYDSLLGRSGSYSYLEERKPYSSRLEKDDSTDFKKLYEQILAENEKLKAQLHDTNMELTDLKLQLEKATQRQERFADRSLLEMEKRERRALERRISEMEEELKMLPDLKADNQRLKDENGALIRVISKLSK
Chain of UniProt Q6IN85 (Q6IN85 whole entry): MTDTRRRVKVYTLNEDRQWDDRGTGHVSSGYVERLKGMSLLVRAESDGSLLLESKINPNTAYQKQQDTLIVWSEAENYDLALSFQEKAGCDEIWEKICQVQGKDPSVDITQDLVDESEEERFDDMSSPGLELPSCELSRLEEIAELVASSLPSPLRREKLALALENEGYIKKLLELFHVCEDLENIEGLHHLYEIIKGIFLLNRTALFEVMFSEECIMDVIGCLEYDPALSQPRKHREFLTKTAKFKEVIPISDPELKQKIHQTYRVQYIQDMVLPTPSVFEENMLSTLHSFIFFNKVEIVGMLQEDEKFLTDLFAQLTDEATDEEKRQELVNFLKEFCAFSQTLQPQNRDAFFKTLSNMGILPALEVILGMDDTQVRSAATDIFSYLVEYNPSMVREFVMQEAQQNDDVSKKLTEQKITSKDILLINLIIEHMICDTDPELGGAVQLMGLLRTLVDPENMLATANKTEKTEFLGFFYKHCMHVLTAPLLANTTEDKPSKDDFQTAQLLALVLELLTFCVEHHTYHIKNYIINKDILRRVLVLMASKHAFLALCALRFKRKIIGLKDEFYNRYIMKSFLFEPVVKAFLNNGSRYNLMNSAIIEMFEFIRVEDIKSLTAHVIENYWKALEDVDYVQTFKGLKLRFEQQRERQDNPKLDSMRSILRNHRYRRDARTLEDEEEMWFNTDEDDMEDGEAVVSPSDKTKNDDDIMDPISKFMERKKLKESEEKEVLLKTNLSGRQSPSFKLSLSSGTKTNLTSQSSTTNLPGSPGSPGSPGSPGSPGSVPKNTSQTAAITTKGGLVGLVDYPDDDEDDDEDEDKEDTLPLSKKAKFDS
Chain of UniProt O95685 (O95685 whole entry): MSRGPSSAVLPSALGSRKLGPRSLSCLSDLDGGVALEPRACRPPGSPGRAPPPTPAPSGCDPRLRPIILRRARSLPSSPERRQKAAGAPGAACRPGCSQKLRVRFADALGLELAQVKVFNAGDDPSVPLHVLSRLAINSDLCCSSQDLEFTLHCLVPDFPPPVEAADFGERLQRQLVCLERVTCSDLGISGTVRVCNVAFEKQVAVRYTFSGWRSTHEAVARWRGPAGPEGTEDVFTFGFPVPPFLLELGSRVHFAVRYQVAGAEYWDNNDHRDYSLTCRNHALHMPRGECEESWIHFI
Chain of UniProt Q12972 (Q12972 whole entry): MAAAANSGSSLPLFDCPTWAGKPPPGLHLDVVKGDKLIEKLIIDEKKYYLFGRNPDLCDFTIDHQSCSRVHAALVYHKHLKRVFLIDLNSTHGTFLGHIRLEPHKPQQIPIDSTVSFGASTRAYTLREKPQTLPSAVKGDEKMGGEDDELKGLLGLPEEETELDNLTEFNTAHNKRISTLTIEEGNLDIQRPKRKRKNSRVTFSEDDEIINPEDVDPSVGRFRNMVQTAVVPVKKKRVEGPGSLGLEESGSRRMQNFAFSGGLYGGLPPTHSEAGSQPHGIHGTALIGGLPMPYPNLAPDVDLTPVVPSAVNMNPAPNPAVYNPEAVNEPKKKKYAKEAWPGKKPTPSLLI
Chain of UniProt Q14738 (Q14738 whole entry): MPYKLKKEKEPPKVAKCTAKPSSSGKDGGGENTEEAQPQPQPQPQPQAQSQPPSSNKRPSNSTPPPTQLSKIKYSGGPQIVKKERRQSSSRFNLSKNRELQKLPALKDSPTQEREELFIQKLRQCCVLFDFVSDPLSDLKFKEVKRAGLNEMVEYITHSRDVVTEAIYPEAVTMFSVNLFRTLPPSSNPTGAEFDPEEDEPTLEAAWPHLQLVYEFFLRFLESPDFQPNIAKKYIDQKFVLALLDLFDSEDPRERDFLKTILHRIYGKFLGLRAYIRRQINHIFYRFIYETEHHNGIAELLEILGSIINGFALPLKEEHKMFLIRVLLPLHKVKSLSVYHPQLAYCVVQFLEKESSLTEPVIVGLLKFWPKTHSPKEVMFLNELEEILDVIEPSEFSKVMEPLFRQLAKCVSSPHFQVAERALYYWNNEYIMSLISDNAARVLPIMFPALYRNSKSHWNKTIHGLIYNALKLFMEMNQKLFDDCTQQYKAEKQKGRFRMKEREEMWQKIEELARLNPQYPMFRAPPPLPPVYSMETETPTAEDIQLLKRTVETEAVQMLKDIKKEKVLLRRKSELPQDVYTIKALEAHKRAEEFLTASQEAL
Chain of UniProt P60510 (P60510 whole entry): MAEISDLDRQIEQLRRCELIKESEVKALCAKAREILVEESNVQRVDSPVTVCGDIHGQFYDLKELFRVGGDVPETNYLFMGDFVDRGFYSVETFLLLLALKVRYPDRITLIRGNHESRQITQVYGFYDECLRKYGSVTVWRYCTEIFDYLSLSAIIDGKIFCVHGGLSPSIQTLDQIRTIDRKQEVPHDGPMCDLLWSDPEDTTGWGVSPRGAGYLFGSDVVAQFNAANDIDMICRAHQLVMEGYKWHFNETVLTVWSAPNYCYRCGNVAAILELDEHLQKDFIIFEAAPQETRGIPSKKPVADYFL
Chain of UniProt Q16537 (Q16537 whole entry): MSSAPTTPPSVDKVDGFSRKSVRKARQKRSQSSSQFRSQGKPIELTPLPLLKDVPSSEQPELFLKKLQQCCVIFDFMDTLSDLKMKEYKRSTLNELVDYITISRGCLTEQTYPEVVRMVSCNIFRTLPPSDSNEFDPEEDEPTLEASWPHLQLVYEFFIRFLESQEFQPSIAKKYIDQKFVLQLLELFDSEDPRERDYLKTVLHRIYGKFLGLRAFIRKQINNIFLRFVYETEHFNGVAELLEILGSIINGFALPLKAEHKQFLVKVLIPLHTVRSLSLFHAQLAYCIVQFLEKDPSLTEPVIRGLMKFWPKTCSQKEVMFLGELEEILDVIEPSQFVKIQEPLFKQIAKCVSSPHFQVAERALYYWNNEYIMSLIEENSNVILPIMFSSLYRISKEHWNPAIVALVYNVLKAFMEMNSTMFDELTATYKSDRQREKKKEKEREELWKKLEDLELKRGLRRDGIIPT
Chain of UniProt O60927 (O60927 whole entry): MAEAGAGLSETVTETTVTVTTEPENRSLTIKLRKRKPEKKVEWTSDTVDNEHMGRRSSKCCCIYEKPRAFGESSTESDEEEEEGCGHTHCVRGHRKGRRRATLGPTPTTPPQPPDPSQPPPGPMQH

| Target | thermal stability z-score (lipoamide; [1]) | thermal stability z-score (lipoamide; arsenate co-treatment: none) | thermal stability z-score (potassium arsenate) |
| --- | --- | --- | --- |
| PPP1CB (UniProt P62140) | 0.928 | -0.00317 | 0.32 |
| PPP1CC (UniProt P36873) | 0.0493 | -0.463 | -0.446 |
| PPP1R2 (UniProt P41236) | 0.658 | 0.619 | 0.183 |
| PPP1R3D (UniProt O95685) | -0.601 | -0.982 | -0.0465 |
| PPP1R7 (UniProt Q15435) | 0.128 | -0.182 | -0.488 |
| PPP1R8 (UniProt Q12972) | 0.0226 | -0.142 | 0.412 |
| PPP1R10 (UniProt Q96QC0) | 0.565 | 0.255 | 0.332 |
| PPP1R11 (UniProt O60927) | 0.0148 | -0.832 | -0.187 |
| PPP1R12A (UniProt O14974) | 1.32 | 0.52 | 0.979 |
| PPP1R13L (UniProt Q8WUF5) | -0.367 | -0.132 | -0.21 |
| PPP1R14B (UniProt Q96C90) | 0.068 | 0.535 | -0.284 |
| PPP1R15B (UniProt Q5SWA1) | -0.102 | -0.0322 | -0.0349 |
| PPP1R18 (UniProt Q6NYC8) | -0.336 | 0.0646 | 0.444 |
| PPP1R21 (UniProt Q6ZMI0) | -0.328 | -0.0718 | -0.839 |
| PPP1R37 (UniProt O75864) | -0.153 | -0.186 | -0.0199 |
| PPP2CA (UniProt P67775) | 0.297 | 0.0726 | -1.92 |
| PPP2CB (UniProt P62714) | 0.564 | 0.167 | -0.474 |
| PPP2R1A (UniProt P30153) | 0.108 | 0.121 | -1.48 |

| Target | thermal stability z-score (lipoamide; [1]) | thermal stability z-score (lipoamide; arsenate co-treatment: none) | thermal stability z-score (potassium arsenate) |
| --- | --- | --- | --- |
| PPP2R1B (UniProt P30154) | 0.0372 | -0.0931 | 0.107 |
| PPP2R2A (UniProt P63151) | 0.294 | 0.531 | -0.49 |
| PPP2R2D (UniProt Q66LE6) | -0.473 | -0.0425 | 0.0879 |
| PPP2R4 (UniProt Q15257) | 0.108 | 0.233 | -0.0643 |
| PPP2R5A (UniProt Q15172) | 0.468 | 0.527 | 0.703 |
| PPP2R5C (UniProt Q13362) | 1.38 | 0.649 | -0.0211 |
| PPP2R5D (UniProt Q14738) | -0.378 | -0.239 | 0.228 |
| PPP2R5E (UniProt Q16537) | 0.219 | 0.285 | 0.682 |
| PPP3CA (UniProt Q08209) | 1.25 | 0.912 | 0.275 |
| PPP3CB (UniProt P16298) | -0.386 | -2.04 | -0.199 |
| PPP3R1 (UniProt P63098) | 0.0623 | 0.412 | 0.32 |
| PPP4C (UniProt P60510) | 0.813 | 0.205 | 0.166 |
| PPP4R1 (UniProt Q8TF05) | 0.26 | 0.0864 | 0.0118 |
| PPP4R2 (UniProt Q9NY27) | -0.326 | 0.221 | -0.136 |
| PPP4R3A (UniProt Q6IN85) | 0.268 | 0.184 | -0.165 |
| PPP4R3B (UniProt Q5MIZ7) | -0.195 | -0.1 | -0.227 |
| PPP5C (UniProt P53041) | 0.859 | 0.0455 | 0.649 |
